# Laboratory results as given in PubChem BioAssay AID180 (DTP/NCI, 2004).
# Values joined by “and” are separate entries in the source; they are usually repeats but may differ in a detail not shown here. Equal entries are not always repeated.
# Test system: BDF1 mice, Adenocarcinoma 755 s.c., tumor weight T/C
# Assay: NCI In Vivo Anticancer Drug Screen. Data for tumor model Adenocarcinoma 755 (subcutaneous) in B6D2F1 (BDF1) mice
# Conditions: endpoint: mean tumor weight, higher = larger tumour
# Summary of the method: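 In vivo antitumor screen on a transplantable tumor line. Result equals the measure in compound-treated animals divided by the same measure in vehicle controls.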
# [1] = dose: 500.0 mg/kg/injection, schedule: Q01DX011 (sc), vehicle: steriod suspending solution
# [2] = dose: 25.0 mg/kg/injection, schedule: Q01DX011 (ip), vehicle: saline
# [3] = dose: 75.0 mg/kg/injection, schedule: Q01DX011 (ip), vehicle: saline
# [4] = dose: 7.5 mg/kg/injection, schedule: Q01DX011 (ip), vehicle: carboxymethylcellulose (CMC)
# [5] = dose: 60.0 mg/kg/injection, schedule: Q01DX011 (ip), vehicle: carboxymethylcellulose (CMC)
smiles,measurement,setting,value
CCC(=O)O[C@H]1CC[C@H]2[C@@H]3CC[C@H]4CC(=O)[C@H](C)C[C@]4(C)[C@H]3CC[C@]12C,T/C,"dose: 44.13 mg/kg/injection, schedule: Q01DX011 (sc), vehicle: steriod suspending solution",109 % of control and 115 % of control
same,T/C,"dose: 88.25 mg/kg/injection, schedule: Q01DX011 (sc), vehicle: steriod suspending solution",156 % of control
same,T/C,"dose: 125.0 mg/kg/injection, schedule: Q01DX011 (sc), vehicle: steriod suspending solution",101 % of control
same,T/C,"dose: 353.0 mg/kg/injection, schedule: Q01DX011 (sc), vehicle: steriod suspending solution",154 % of control
same,T/C,[1],176 % of control
same,T/C,"dose: 1000.0 mg/kg/injection, schedule: Q01DX011 (sc), vehicle: steriod suspending solution",124 % of control
[O-][N+](CCO)(CCO)c1ncnc2nc[nH]c12,T/C,[2],121 % of control
same,T/C,[3],72 % of control
same,T/C,"dose: 225.0 mg/kg/injection, schedule: Q01DX011 (ip), vehicle: saline",82 % of control
Clc1ccc(CNc2ncnc3c2cnn3C2CCCCO2)cc1Cl (stereo not given),T/C,"dose: 12.5 mg/kg/injection, schedule: Q01DX011 (ip), vehicle: methylcellulose (MC)",83 % of control
same,T/C,"dose: 25.0 mg/kg/injection, schedule: Q01DX011 (ip), vehicle: methylcellulose (MC)",105 % of control
same,T/C,"dose: 100.0 mg/kg/injection, schedule: Q01DX011 (ip), vehicle: methylcellulose (MC)",40 % of control and 61 % of control
same,T/C,"dose: 200.0 mg/kg/injection, schedule: Q01DX011 (ip), vehicle: methylcellulose (MC)",23 % of control
CSc1nc(N)c(NC=O)c(=O)n1C,T/C,[2],118 % of control
same,T/C,[3],66 % of control
CCCCn1cnc2c(SCc3ccccc3)nc(N)nc21,T/C,"dose: 7.81 mg/kg/injection, schedule: Q01DX011 (ip), vehicle: methylcellulose (MC)",31 % of control
same,T/C,"dose: 15.62 mg/kg/injection, schedule: Q01DX011 (ip), vehicle: methylcellulose (MC)",2 % of control
same,T/C,"dose: 31.25 mg/kg/injection, schedule: Q01DX011 (ip), vehicle: methylcellulose (MC)",1 % of control
CCCCn1cnc2c(=O)[nH]cnc21,T/C,"dose: 0.9 mg/kg/injection, schedule: Q01DX011 (ip), vehicle: carboxymethylcellulose (CMC)",76 % of control
same,T/C,"dose: 1.8 mg/kg/injection, schedule: Q01DX011 (ip), vehicle: carboxymethylcellulose (CMC)",83 % of control
same,T/C,"dose: 1.8 mg/kg/injection, schedule: Q01DX011 (oral), vehicle: carboxymethylcellulose (CMC)",76 % of control
same,T/C,"dose: 3.7 mg/kg/injection, schedule: Q01DX011 (ip), vehicle: carboxymethylcellulose (CMC)",91 % of control
same,T/C,"dose: 3.7 mg/kg/injection, schedule: Q01DX011 (oral), vehicle: carboxymethylcellulose (CMC)",107 % of control
same,T/C,[4],63 % of control
same,T/C,"dose: 7.5 mg/kg/injection, schedule: Q01DX011 (oral), vehicle: carboxymethylcellulose (CMC)",82 % of control
same,T/C,"dose: 15.0 mg/kg/injection, schedule: Q01DX011 (oral), vehicle: carboxymethylcellulose (CMC)",90 % of control
same,T/C,"dose: 40.0 mg/kg/injection, schedule: Q01DX001 (ip), vehicle: other",60 % of control
same,T/C,"dose: 66.1 mg/kg/injection, schedule: Q01DX011 (ip), vehicle: other",111 % of control
same,T/C,"dose: 81.0 mg/kg/injection, schedule: Q01DX001 (ip), vehicle: other",45 % of control
same,T/C,"dose: 132.2 mg/kg/injection, schedule: Q01DX011 (ip), vehicle: other",90 % of control
same,T/C,"dose: 132.25 mg/kg/injection, schedule: Q01DX011 (ip), vehicle: carboxymethylcellulose (CMC)",58 % of control
same,T/C,"dose: 132.25 mg/kg/injection, schedule: Q01DX011 (oral), vehicle: carboxymethylcellulose (CMC)",70 % of control
same,T/C,"dose: 162.0 mg/kg/injection, schedule: Q01DX001 (ip), vehicle: other",122 % of control
same,T/C,"dose: 264.5 mg/kg/injection, schedule: Q01DX011 (ip), vehicle: carboxymethylcellulose (CMC)",105 % of control
same,T/C,"dose: 264.5 mg/kg/injection, schedule: Q01DX011 (ip), vehicle: other",76 % of control
same,T/C,"dose: 264.5 mg/kg/injection, schedule: Q01DX011 (oral), vehicle: carboxymethylcellulose (CMC)",86 % of control
same,T/C,"dose: 324.0 mg/kg/injection, schedule: Q01DX001 (ip), vehicle: other",102 % of control
same,T/C,"dose: 529.0 mg/kg/injection, schedule: Q01DX011 (oral), vehicle: carboxymethylcellulose (CMC)",89 % of control
SCc1ccccn1,T/C,"dose: 37.8 mg/kg/injection, schedule: Q01DX011 (ip), vehicle: carboxymethylcellulose (CMC)",109 % of control
same,T/C,"dose: 300.0 mg/kg/injection, schedule: Q01DX011 (ip), vehicle: carboxymethylcellulose (CMC)",97 % of control
O=C(CCBr)N1CCCN(C(=O)CCBr)CC1,T/C,"dose: 28.0 mg/kg/injection, schedule: Q01DX011 (ip), vehicle: carboxymethylcellulose (CMC)",85 % of control
same,T/C,"dose: 57.0 mg/kg/injection, schedule: Q01DX011 (ip), vehicle: carboxymethylcellulose (CMC)",60 % of control
same,T/C,"dose: 57.0 mg/kg/injection, schedule: Q01DX011 (ip), vehicle: methylcellulose (MC)",58 % of control and 78 % of control
same,T/C,"dose: 113.0 mg/kg/injection, schedule: Q01DX011 (ip), vehicle: carboxymethylcellulose (CMC)",16 % of control
same,T/C,"dose: 113.0 mg/kg/injection, schedule: Q01DX011 (ip), vehicle: methylcellulose (MC)",35 % of control
C=CC(COC(C)=O)N1CC1 (stereo not given),T/C,"dose: 3.25 mg/kg/injection, schedule: Q01DX011 (ip), vehicle: saline",58 % of control and 76 % of control
same,T/C,"dose: 3.25 mg/kg/injection, schedule: Q01DX011 (oral), vehicle: saline",193 % of control
same,T/C,"dose: 7.5 mg/kg/injection, schedule: Q01DX011 (oral), vehicle: saline",228 % of control
same,T/C,"dose: 15.0 mg/kg/injection, schedule: Q01DX011 (oral), vehicle: saline",157 % of control
same,T/C,"dose: 30.0 mg/kg/injection, schedule: Q01DX011 (oral), vehicle: saline",19 % of control
CCCCn1cnc2c(SC)nc(N)nc21,T/C,"dose: 3.8 mg/kg/injection, schedule: Q01DX011 (ip), vehicle: carboxymethylcellulose (CMC)",95 % of control
same,T/C,[4],49 % of control
same,T/C,"dose: 9.0 mg/kg/injection, schedule: Q01DX011 (ip), vehicle: carboxymethylcellulose (CMC)",79 % of control
same,T/C,"dose: 13.0 mg/kg/injection, schedule: Q01DX011 (ip), vehicle: carboxymethylcellulose (CMC)",69 % of control
same,T/C,"dose: 15.0 mg/kg/injection, schedule: Q01DX011 (ip), vehicle: carboxymethylcellulose (CMC)",30 % of control
same,T/C,"dose: 20.0 mg/kg/injection, schedule: Q01DX011 (ip), vehicle: carboxymethylcellulose (CMC)",44 % of control
same,T/C,[5],3 % of control and 4 % of control
same,T/C,"dose: 115.0 mg/kg/injection, schedule: Q01DX011 (ip), vehicle: carboxymethylcellulose (CMC)",2 % of control and 3 % of control
Cc1ccc2ccccc2c1CSc1ncnc2nc[nH]c12,T/C,"dose: 10.0 mg/kg/injection, schedule: Q01DX011 (ip), vehicle: methylcellulose (MC)",38 % of control
same,T/C,"dose: 20.0 mg/kg/injection, schedule: Q01DX011 (ip), vehicle: methylcellulose (MC)",40 % of control
same,T/C,"dose: 40.0 mg/kg/injection, schedule: Q01DX011 (ip), vehicle: methylcellulose (MC)",11 % of control
same,T/C,"dose: 80.0 mg/kg/injection, schedule: Q01DX011 (ip), vehicle: methylcellulose (MC)",9 % of control
CC1(O)CCC2C3CCC4=CC(=O)CCC4C3CCC21C (stereo not given),T/C,"dose: 50.0 mg/kg/injection, schedule: Q01DX011 (sc), vehicle: steriod suspending solution",93 % of control
same,T/C,"dose: 100.0 mg/kg/injection, schedule: Q01DX011 (sc), vehicle: steriod suspending solution",76 % of control
same,T/C,"dose: 200.0 mg/kg/injection, schedule: Q01DX011 (sc), vehicle: steriod suspending solution",59 % of control
same,T/C,"dose: 400.0 mg/kg/injection, schedule: Q01DX011 (sc), vehicle: steriod suspending solution",51 % of control
same,T/C,[1],47 % of control
same,T/C,"dose: 600.0 mg/kg/injection, schedule: Q01DX011 (sc), vehicle: steriod suspending solution",38 % of control
Nc1nc(SCc2ccccn2)c2ncn(C3CCCC3)c2n1,T/C,"dose: 1.1 mg/kg/injection, schedule: Q01DX011 (ip), vehicle: carboxymethylcellulose (CMC)",79 % of control
same,T/C,"dose: 2.3 mg/kg/injection, schedule: Q01DX011 (ip), vehicle: carboxymethylcellulose (CMC)",96 % of control
same,T/C,"dose: 4.6 mg/kg/injection, schedule: Q01DX011 (ip), vehicle: carboxymethylcellulose (CMC)",74 % of control
same,T/C,"dose: 9.3 mg/kg/injection, schedule: Q01DX011 (ip), vehicle: carboxymethylcellulose (CMC)",22 % of control
same,T/C,"dose: 37.5 mg/kg/injection, schedule: Q01DX011 (ip), vehicle: carboxymethylcellulose (CMC)",2 % of control
CSc1nc(Cl)cc(NC(=O)CCl)n1,T/C,[5],124 % of control
C[C@]12CCC(=O)C=C1CC[C@@H]1[C@@H]2[C@@H](O)C[C@@]2(C)[C@H]1CC[C@]2(O)C(=O)COC(=O)CCC(=O)O,T/C,"dose: 700.0 mg/kg/injection, schedule: Q01DX011 (sc), vehicle: steriod suspending solution",10 % of control
